Laboratory results reported in patent US20140018316A1, “OPHTHALMIC PHARMACEUTICAL COMPOSITION” (Hayashibara Co., Ltd., priority 2005, published 2014).

Test system: circular corneal fragment extracted from a pig eye ball
Assay: Corneal walleye/cloudiness and edema of pig corneal fragments soaked in test or control solutions
Design: degree of corneal walleye/cloudiness (relative value): scale not given here; key to corneal edema: ◯: Corneal edema was observed.; —: No corneal edema was observed
Details: for corneal edema / degree of corneal walleye/cloudiness (relative value): 100 mM in physiological saline
Description: Experiment to examine the influence of cyclic tetrasaccharide on corneal walleye/cloudiness was conducted as follows: A physiological saline containing 100 mM cyclic tetrasaccharide was previously prepared for use as a test solution by dissolving a cyclic tetrasaccharide crystal, pentahydrate, which had been prepared by the later described method in Example for Reference 2. As a positive control solution, it was prepared a physiological saline containing 100 mM α,α-trehalose, a reagent grade specimen, commercialized by Hayashibara Biochemical Laboratories, Inc., Okayama, Japan; and as a negative control solution, physiological saline was used. Two milliliters of any one of the above three kinds of aqueous solutions were added to respective two wells in a commercialized 24-well culture plate. To each well in each culture plate a circular corneal fragment, which had been extracted from a pig eye ball obtained from a slaughterhouse by using a trephine for corneal transplantation, was placed and macroscopically and microscopically observed for changing in both the degree of corneal walleye/cloudiness and the change of corneal shape such as corneal edema. The macroscopic and microscopic observations were done just after the corneas were placed in the wells at (0) and at 1, 2, 6, 24, 48 and 72 hours after their placing. The methods of macroscopic and microscopic observations and the analysis of the time course change of corneal walleye/cloudiness were conducted by the same ones as used in Experiment 1. Tables 3 and 4 show the transition of corneal walleye/cloudiness and that of the corneal edema, respectively.

SMILES: OCC1OC2OCC3O[C@H](O[C@H]4C(O)C(CO)OC(OCC5O[C@H](O[C@@H](C1O)C2O)C(O)C(O)[C@@H]5O)C4O)C(O)C(O)[C@@H]3O (stereo partly drawn) [Test solution, cyclo{→6)-α-D-glucopyranosyl-(1→3)-α-D-glucopyranosyl-(1→6)-α-D-glucopyranosyl-(1→3)-α-D-glucopyranosyl-(1→}]
- corneal edema (1 hour): —
- degree of corneal walleye/cloudiness (relative value) (1 hour): 11
- corneal edema (2 hours): —
- degree of corneal walleye/cloudiness (relative value) (2 hours): 11
- corneal edema (6 hours): —
- degree of corneal walleye/cloudiness (relative value) (6 hours): 13
- corneal edema (24 hours): —
- degree of corneal walleye/cloudiness (relative value) (24 hours): 16
- corneal edema (48 hours): —
- degree of corneal walleye/cloudiness (relative value) (48 hours): 16
- corneal edema (72 hours): —
- degree of corneal walleye/cloudiness (relative value) (72 hours): 19
- corneal edema (time 0): —
- degree of corneal walleye/cloudiness (relative value) (time 0): 10
- corneal edema (in words) (100 mM, up to 72 hours): No occurrence of corneal edema was observed
